Patent US10851043B1, “Compound for fatty acid synthase inhibition” (KANNUR UNIVERSITY, priority 2019, dated 2020)
≈ marks a conversion by molar mass, not a printed value.

Columns and labels:
[1] = target: FAS prepared from Saccharomyces cerevisiae (Saccharomyces cerevisiae, UniProt P07149+P19097); conditions: Li et al. (2002), cited from earlier work
Bacterial FAS II enzyme = assay: FAS II assay (NADPH oxidation at 340 nm); format: biochemical, Bacillus subtilis; conditions: for Average ΔC (change in concentration of NADPH): control 0.05037
Experimental: Crude FAS containing protein fraction was isolated according to the modified protocol of Ahmad et al. (1981). Stock culture of Bacillus subtilis was inoculated in 100 mL LB broth pH 7.2 and cultured for 24 hours at room temperature. It was used for further inoculation of four 1000 mL flasks with same media and culture conditions. The flasks were placed in a rotator shaker to ensure adequate suspension of cells. Bacteria were harvested during the late-exponential phase of growth by centrifugation at 10000×g for 10 minutes and washed twice with 50 mM sodium phosphate buffer (pH 7.0) to provide cell pastes which were stored at -20° C. until use. Frozen cell pastes (25-35 g) were thawed and suspended in 50 mM sodium phosphate buffer (pH 7.0). The cell suspension was disrupted by sonication (12 W, 6×15 pulses with 15 second intervals) in 2 mL Eppendorf tubes containing 1.5 mL of cell suspension, supplemented with lysozyme (250 μg/mL) in a sonicator, operating at maximum power output while maintaining the temperature below 4° C. Unbroken cells and cell debris were removed by centrifugation at 30000×g for 30 minutes at 4° C. The […] were re-suspended in 50 mM sodium phosphate buffer (pH 7.0) and made up to appropriate volume and subjected to ammonium sulphate precipitation. Solid ammonium sulphate was added and the protein precipitate at 40-60% saturation was collected by centrifugation, dialyzed and used for further assay. FAS assay for FAS I enzyme was performed according to a modified process of Li et al. 2002. Crude protein was made up to a concentration of 0.5 mg/mL of protein and used for the assay. Assay was carried out in 96 well plates with the final working volume of 100 μL. […] The microplate was read immediately for 10 minutes at 340 nm. FAS activity was calculated by subtracting the optical density (OD) value obtained after 1 minute from the OD value obtained after 10 minutes. FAS activity was calculated and compared with that of control and test compounds. Dimethyl sulfoxide (DMSO) was taken as control as it was used to dilute the compounds. […] The negative control consisted of protein plus reaction buffer. Another control consisted of buffer reaction without protein. The IC50 was determined by linear regression. FAS activity was determined by the rate of oxidation of NADPH to NADP which was monitored at 340 nm. The change in concentration of NADPH during oxidation was calculated using the following equation: ΔC=ΔA/E Where, ΔC was change in the concentration of NADPH, ΔA was change in absorbance, and E was extinction coefficient of NADPH ([…] nm=6.22 mM^-1·cm^-1). FAS activity was expressed as n mol NADPH oxidized/min/mg protein. Assay using partially purified enzyme from Bacillus subtilis was also performed to verify the FAS II inhibitory activity of compound of Formula II. […] The graph was plotted with change in concentration of NADP to NADPH against time. Each point in graph was the concentration of NADPH measured on a spectrophotometer at 340 nm (FIGS. 6 and 7 for FAS II and FAS I respectively).

[2] = tested on: FAS I enzyme from bovine liver; assay: FAS I assay (NADPH oxidation at 340 nm); format: biochemical, Indian water buffalo; conditions: for Average ΔC (change in concentration of NADPH): control 0.051383
Experimental: Crude preparation of FAS I enzyme was made according to modified protocol of Dulter et al. (1971). Liver from freshly slaughtered Indian water buffalo was collected and transported in ice bucket and kept at 4° C. till processing. The liver was processed at the earliest by removing connective tissues and sliced into small pieces. Using a blender, about 750 g of liver was minced to form a suspension with 0.05 M potassium phosphate buffer pH 7.4 containing 1 mM EDTA to make up to a volume of 2.5 liters. The thick solution was centrifuged at 7500×g for 20 minutes to remove meat debris and the supernatant obtained was further centrifuged at 30000×g for 30 minutes to get a translucent solution. The supernatant was further diluted to specific volume using 0.05 M Potassium phosphate buffer (pH 7.4) with 1 mM EDTA and brought initially to 10% and then to 40% saturation with solid ammonium sulfate at 4° C. The 40% ammonium sulfate fraction was centrifuged and protein precipitate was re-dissolved in 0.05 mM Tris HCl buffer, pH 7.4, dialyzed against same buffer. The FAS I enzyme was further purified by ion exchange chromatography with Diethylaminoethyl (DEAE) cellulose column as described above (Dulter et al. 1971).
FAS assay for FAS I enzyme was performed according to a modified process of Li et al. 2002. Crude protein was made up to a concentration of 0.5 mg/mL of protein and used for the assay. Assay was carried out in 96 well plates with the final working volume of 100 μL. Compounds to be tested were incubated with previously made crude protein extract for 30 minutes at 25° C. 50 μL of this mixture was added to 50 of reaction mixture containing 1 mM each of malonyl CoA and Nicotinamide adenine dinucleotide phosphate (NADPH), 40 μM acetyl CoA, and 2 mM Dithiothreitol (DTT) in phosphate buffer (250 mM).
The microplate was read immediately for 10 minutes at 340 nm. FAS activity was calculated by subtracting the optical density (OD) value obtained after 1 minute from the OD value obtained after 10 minutes. FAS activity was calculated and compared with that of control and test compounds. Dimethyl sulfoxide (DMSO) was taken as control as it was used to dilute the compounds. […] The negative control consisted of protein plus reaction buffer. Another control consisted of buffer reaction without protein. The IC50 was determined by linear regression. FAS activity was determined by the rate of oxidation of NADPH to NADP which was monitored at 340 nm. The change in concentration of NADPH during oxidation was calculated using the following equation: ΔC=ΔA/E
Where, ΔC was change in the concentration of NADPH, ΔA was change in absorbance, and E was extinction coefficient of NADPH (E340 nm=6.22 mM^−1·cm^−1). FAS activity was expressed as n mol NADPH oxidized/min/mg protein.

[3] = tested on: A549 lung carcinoma cells; assay: In-vitro anti-proliferative property on cultured A549 cells (MTT assay); format: cell-based; conditions: for Percentage Viability / IC50 anti-proliferative activity against A549 cells / viability at 6.25 µg/mL / viability at 12.5 µg/mL / viability at 25 µg/mL / viability at 50 µg/mL / viability at 100 µg/mL: 24 hours; for IC50 anti-proliferative activity against A549 cells / IC50: MTT; for IC50 / viability at 6.25 µg/mL / viability at 12.5 µg/mL / viability at 25 µg/mL / viability at 50 µg/mL / viability at 100 µg/mL: Homo sapiens; for IC50: A549, 24 h, read-out: IC50 anti-proliferative activity against A549 cells; for viability at 6.25 µg/mL / viability at 12.5 µg/mL / viability at 25 µg/mL / viability at 50 µg/mL / viability at 100 µg/mL: read-out: Percentage Viability
Experimental: A549 lung carcinoma cells were maintained in Dulbecco's modified eagles media (Himedia, India) supplemented with 10% FBS (Invitrogen, India) and grown to confluence at 37° C. and 5% CO2 in a humidified atmosphere using a CO2 incubator (NBS, Eppendorf, Germany). The cells were trypsinized (500 μL of 0.025% trypsin in PBS/0.5 mM EDTA solution (Himedia, India) for 2 minutes and transferred to T flasks under aseptic condition. Test compounds were added to grown cells with a final concentration of 6.25, 12.5, 25, 50, 100 μg/mL from a stock of 1 mg/mL and incubated for 24 hours. The % difference in viability was determined by standard MTT assay (Arung et al. 2000) after 24 hours of incubation. Viability percentage was calculated using the Formula, % viability=(OD of Test/OD of Control)×100

L929 (Fibroblast cells) = assay: In-vitro cytotoxic effect on cultured L929 cells (MTT assay); format: cell-based; conditions: MTT, 24 hours
Experimental: (§1) Cultures of L929 (Fibroblast cells) were maintained in Dulbecco's modified eagles media supplemented with 10% fetal bovine serum (FBS) and grown to confluence at 37° C. and 5% CO2 in a humidified atmosphere using a CO2 incubator. The cells were trypsinised (500 μL of 0.025% Trypsin in PBS/0.5 mM Ethylene diamine tetraacetic acid (EDTA) solution for 2 minutes and passed to T flasks under complete aseptic conditions. Test compounds were added to grown cells at a final concentration of 6.25, 12.5, 25, 50 and 100 μg/mL from a stock of 1 mg/mL and incubated for 24 hours. The percentage difference in viability was determined by standard MTT assay after 24 hours of incubation. The MTT assay is a colorimetric assay for assessing cell metabolic activity. NAD (P) H-dependent cellular oxidoreductase enzymes under defined conditions, reflect the number of viable cells present.
(§2) Viability percentage was calculated using the Formula, % viability=(OD of Test/OD of control)×100, • where control OD was 0.993.

[4] = as above; format: cell-based; conditions: mouse
Experimental: as §1, §2

Chain of FAS prepared from Saccharomyces cerevisiae (P07149 whole entry): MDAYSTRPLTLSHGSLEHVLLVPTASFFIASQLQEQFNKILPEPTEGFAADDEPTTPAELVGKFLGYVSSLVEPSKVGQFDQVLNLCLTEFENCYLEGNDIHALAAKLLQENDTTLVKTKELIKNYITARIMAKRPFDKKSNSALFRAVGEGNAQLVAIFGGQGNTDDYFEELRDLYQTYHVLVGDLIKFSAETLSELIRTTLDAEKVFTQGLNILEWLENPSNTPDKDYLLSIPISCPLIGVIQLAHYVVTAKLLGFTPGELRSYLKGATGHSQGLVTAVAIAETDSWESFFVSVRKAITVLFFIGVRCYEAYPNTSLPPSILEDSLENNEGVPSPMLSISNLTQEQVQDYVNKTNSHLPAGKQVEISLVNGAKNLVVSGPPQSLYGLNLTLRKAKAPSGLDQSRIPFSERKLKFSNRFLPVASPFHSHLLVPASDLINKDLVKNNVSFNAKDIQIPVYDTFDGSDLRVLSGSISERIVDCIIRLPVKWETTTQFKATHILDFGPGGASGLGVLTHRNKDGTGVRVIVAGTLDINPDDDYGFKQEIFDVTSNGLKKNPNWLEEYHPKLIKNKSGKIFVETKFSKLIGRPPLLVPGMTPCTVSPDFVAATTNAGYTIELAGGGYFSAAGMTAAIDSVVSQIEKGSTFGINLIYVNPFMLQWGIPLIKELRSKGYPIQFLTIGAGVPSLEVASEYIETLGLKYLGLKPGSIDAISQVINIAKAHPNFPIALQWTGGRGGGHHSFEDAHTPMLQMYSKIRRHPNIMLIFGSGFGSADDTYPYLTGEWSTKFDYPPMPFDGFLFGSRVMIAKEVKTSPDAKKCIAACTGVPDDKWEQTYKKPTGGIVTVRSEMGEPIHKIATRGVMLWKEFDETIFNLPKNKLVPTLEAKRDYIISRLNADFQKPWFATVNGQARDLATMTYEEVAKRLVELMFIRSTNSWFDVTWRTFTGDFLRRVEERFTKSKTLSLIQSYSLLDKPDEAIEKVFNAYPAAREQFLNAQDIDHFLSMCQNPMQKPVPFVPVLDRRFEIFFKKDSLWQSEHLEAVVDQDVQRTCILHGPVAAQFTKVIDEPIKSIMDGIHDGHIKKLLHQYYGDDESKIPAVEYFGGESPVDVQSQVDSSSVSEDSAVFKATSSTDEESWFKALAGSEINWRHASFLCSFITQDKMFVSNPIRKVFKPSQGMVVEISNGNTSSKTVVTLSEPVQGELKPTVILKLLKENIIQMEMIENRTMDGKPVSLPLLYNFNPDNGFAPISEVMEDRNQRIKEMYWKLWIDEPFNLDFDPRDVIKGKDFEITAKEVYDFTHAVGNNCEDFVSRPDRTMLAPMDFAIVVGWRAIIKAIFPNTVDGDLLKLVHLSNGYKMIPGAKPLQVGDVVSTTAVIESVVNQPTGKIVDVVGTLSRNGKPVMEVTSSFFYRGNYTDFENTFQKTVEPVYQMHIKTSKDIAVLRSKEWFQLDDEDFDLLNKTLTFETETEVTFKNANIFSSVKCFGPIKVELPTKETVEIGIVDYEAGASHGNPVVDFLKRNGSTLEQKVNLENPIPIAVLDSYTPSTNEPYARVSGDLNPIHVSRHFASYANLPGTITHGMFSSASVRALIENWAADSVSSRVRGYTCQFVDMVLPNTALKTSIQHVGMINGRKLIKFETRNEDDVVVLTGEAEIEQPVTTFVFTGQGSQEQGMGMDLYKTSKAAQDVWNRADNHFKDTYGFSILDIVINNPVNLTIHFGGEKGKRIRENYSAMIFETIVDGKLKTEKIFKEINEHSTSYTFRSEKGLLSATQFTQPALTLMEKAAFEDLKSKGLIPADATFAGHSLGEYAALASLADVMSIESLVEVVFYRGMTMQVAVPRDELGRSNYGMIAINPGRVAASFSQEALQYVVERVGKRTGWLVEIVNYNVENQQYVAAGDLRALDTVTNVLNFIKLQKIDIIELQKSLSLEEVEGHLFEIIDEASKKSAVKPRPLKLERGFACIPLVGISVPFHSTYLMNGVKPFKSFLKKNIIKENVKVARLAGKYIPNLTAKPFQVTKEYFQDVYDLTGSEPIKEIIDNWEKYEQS
Chain of FAS prepared from Saccharomyces cerevisiae (P19097 whole entry): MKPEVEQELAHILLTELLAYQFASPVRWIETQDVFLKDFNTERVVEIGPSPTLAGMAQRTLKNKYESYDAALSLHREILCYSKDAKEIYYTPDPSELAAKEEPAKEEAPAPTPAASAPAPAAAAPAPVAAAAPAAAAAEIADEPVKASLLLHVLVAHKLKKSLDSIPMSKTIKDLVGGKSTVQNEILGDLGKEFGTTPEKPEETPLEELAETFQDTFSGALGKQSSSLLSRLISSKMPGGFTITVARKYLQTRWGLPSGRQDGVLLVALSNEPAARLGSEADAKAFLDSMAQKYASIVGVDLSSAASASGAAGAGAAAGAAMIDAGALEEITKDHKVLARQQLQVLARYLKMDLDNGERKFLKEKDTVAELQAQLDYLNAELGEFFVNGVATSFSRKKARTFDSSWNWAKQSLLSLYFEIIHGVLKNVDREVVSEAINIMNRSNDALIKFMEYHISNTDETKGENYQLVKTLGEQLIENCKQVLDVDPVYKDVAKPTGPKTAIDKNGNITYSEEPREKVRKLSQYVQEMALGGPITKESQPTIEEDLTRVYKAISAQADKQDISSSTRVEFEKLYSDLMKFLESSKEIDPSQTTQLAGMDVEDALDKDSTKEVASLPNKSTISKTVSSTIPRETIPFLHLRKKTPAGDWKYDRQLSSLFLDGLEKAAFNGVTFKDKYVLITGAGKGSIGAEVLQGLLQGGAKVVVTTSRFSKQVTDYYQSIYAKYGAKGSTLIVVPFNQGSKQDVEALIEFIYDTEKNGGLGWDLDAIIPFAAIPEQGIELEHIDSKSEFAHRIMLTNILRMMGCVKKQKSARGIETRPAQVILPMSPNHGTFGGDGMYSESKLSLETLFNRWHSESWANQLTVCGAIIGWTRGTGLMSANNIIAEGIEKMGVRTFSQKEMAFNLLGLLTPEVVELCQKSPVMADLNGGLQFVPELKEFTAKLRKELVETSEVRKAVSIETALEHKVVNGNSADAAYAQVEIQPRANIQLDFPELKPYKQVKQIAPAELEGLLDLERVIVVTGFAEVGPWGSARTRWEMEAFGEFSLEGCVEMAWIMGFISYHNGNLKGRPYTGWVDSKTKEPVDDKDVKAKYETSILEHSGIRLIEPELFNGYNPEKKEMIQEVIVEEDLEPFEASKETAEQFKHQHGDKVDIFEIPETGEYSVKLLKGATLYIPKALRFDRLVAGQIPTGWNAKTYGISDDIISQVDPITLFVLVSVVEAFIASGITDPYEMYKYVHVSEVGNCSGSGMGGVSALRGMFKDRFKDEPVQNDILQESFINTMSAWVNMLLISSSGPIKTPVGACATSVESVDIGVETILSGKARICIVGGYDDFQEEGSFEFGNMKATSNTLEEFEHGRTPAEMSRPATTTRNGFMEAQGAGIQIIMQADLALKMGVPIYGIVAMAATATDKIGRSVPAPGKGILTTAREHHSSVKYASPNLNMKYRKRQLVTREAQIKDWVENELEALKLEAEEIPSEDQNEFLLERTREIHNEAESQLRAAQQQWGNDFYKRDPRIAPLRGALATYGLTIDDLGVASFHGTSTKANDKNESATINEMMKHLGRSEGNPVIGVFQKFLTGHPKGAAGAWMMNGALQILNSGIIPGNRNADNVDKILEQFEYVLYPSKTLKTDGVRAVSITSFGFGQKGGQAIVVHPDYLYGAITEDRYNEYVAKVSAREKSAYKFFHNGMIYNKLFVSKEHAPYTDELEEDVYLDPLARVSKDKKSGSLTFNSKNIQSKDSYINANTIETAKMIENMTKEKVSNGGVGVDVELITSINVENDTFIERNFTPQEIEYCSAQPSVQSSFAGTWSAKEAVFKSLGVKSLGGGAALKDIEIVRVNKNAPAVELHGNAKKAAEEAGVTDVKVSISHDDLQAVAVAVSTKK

Row | Compound | Inhibition compared to control (Bacterial FAS II enzyme) [%] | Average ΔC (change in concentration of NADPH) (Bacterial FAS II enzyme) | Inhibition compared to control [2] [%] | Average ΔC (change in concentration of NADPH) [2] | IC50 anti-proliferative activity against A549 cells [3] [µg/mL] | IC50 [3] [µg/mL] | viability at 6.25 µg/mL ([3]; A549, 6.25 μg/mL) [%] | viability at 12.5 µg/mL ([3]; A549, 12.5 μg/mL) [%] | viability at 25 µg/mL ([3]; A549, 25 μg/mL) [%] | viability at 50 µg/mL ([3]; A549, 50 μg/mL) [%] | viability at 100 µg/mL ([3]; A549, 100 μg/mL) [%] | other results
1 | O=Cc1cc(-c2coc3cc(O)cc(O)c3c2=O)ccc1O [3′-Formylgenistein] |  |  |  |  |  |  |  |  |  |  |  | IC50 ([1]; read-out: IC50 against FAS (converted)): 7.71 µM
2 | C=C1C(=O)OC(CCCCCCCC)C1C(=O)O (stereo not drawn) [C75] | 15.67 | 0.04248 | 29.60 | 0.03612 | 99.034 (≈ 389 µM) |  |  |  |  |  |  | Percentage Viability ([3]; A549, 6.25 μg/mL): 100.0%; Percentage Viability ([3]; A549, 12.5 μg/mL): 100.0%; Percentage Viability ([3]; A549, 25 μg/mL): 80.110%; Percentage Viability ([3]; A549, 50 μg/mL): 66.483%; Percentage Viability ([3]; A549, 100 μg/mL): 55.985%
3 | C/C=C/C/C=C/CCC(=O)[C@H]1O[C@H]1C(N)=O [Cerulenin] | 21.48 | 0.03955 | 36.49 | 0.03248 |  | 86.4 (≈ 387 µM) | 100 | 96.9 | 72 | 62.2 | 48.1 | 
4 | CC(C)[C@H](O)C(=O)/C(O)=C/[C@@H](N)/C=C\CCCC[C@H]1C=C[C@@H](O)C=C1 [Compound of Formula II, (3S,5Z,7S,8Z)-7-amino-3,5-dihydroxy-2-methyl-13-[(1s,4s)-4-hydroxycyclohexa-2,5-dien-1-yl]trideca-5,8-dien-4-one] | 30.54 | 0.03498 | 41.49 | 0.03006 | 76.034 | 74 to 78 | 92.3 | 89.7 | 67.4 | 55.7 | 42.6 | LD50 against L929 cell lines (L929 (Fibroblast cells)): about 89.65 μg/mL; viability at 24 h, 6.25 μg/mL [4]: 90.8%; viability at 24 h, 12.5 μg/mL [4]: 85.8%; viability at 24 h, 25 μg/mL [4]: 74.7%; viability at 24 h, 50 μg/mL [4]: 64.3%; viability at 24 h, 100 μg/mL [4]: 55.8%
5 | C[C@@H]1O[C@@H](Oc2cc3c(=O)oc4c(O)c(O)cc5c(=O)oc(c2O)c3c45)[C@H](O)[C@H](O)[C@H]1O [ellagic acid 4-O-alpha-1-rhamnopyranoside] |  |  |  |  |  |  |  |  |  |  |  | IC50 against FAS [1]: 7.5 microgram/mL
